Test results taken from US6407114B1, “Pyrazolopyrimidinone CGMP PDE5 inhibitors for the treatment of sexual dysfunction” (Pfizer Inc., priority 1998, dated 2002).

molecular target: cGMP PDE5 (UniProt O76074); test: In vitro PDE inhibitory activity against cGMP PDE5; format: biochemical; details: in vitro inhibition of cGMP PDE5
Description: In vitro PDE inhibitory activities against cyclic guanosine 3′,5′-monophosphate (cGMP) and cyclic adenosine 3′,5′-monophosphate (cAMP) phosphodiesterases were determined by measurement of their IC50 values (the concentration of compound required for 50% inhibition of enzyme activity).
The required PDE enzymes were isolated from a variety of sources, including human corpus cavernosum, human and rabbit platelets, human cardiac ventricle, human skeletal muscle and bovine retina, essentially by the method of W. J. Thompson and M. M. Appleman (Biochem., 1971, 10, 311). In particular, the cGMP-specific PDE (PDE5) and the cGMP-inhibited cAMP PDE (PDE3) were obtained from human corpus cavernosum tissue, human platelets or rabbit platelets; the cGMP-stimulated PDE (PDE2) was obtained from human corpus cavernosum; the calcium/calmodulin (Ca/CAM)-dependent PDE (PDE1) from human cardiac ventricle; the cAMP-specific PDE (PDE4) from human skeletal muscle; and the photoreceptor PDE (PDE6) from bovine retina.
Assays were performed using a modification of the “batch” method of W. J. Thompson et al. (Biochem., 1979, 18, 5228).

Which IC50 does the source give for `CCCOc1ccc(S(=O)(=O)N2CCN(CC)CC2)cc1-c1nc2c(c(Cc3ccccn3)nn2CCC)c(=O)[nH]1` [Example 1, 6-[5-(4-Ethylpiperazin-1-ylsulphonyl)-2-n-propoxyphenyl]-1-n-propyl-3-(pyridin-2-yl)methyl-1,5-dihydro-4H-pyrazolo[3,4-d]pyrimidin-4-one] here?
The IC50 was 9.3 nM.

`CCCn1nc(Cc2ccccc2)c2c(=O)[nH]c(-c3cc(S(=O)(=O)N4CCN(C)CC4)ccc3OCC)nc21` [Example 4, 3-Benzyl-6-[2-ethoxy-5-(4-methylpiperazin-1-ylsulphonyl)phenyl]-1-n-propyl-1,5-dihydro-4H-pyrazolo[3,4-d]pyrimidin-4-one] was tested. Which IC50 did it give?
Its IC50 is 5.61 nM.

`CCOc1ncc(S(=O)(=O)N2CCN(CC)CC2)cc1-c1nc2c(c(-c3cnccn3)nn2CC)c(=O)[nH]1` [Example 18, 6-[2-Ethoxy-5-(4-ethylpiperazin-1-ylsulphonyl)pyridin-3-yl]-1-ethyl-3-(pyrazin-2-yl)-1,5-dihydro-4H-pyrazolo[3,4-d]pyrimidin-4-one] was tested. Which IC50 did it give?
Its IC50 is 8.1 nM.

Which IC50 does the source give for `CCOc1ncc(S(=O)(=O)N2CCN(CC)CC2)cc1-c1nc2c(c(-c3ccccc3)nn2CC)c(=O)[nH]1` [Example 21, 6-[2-Ethoxy-5-(4-ethylpiperazin-1-ylsulphonyl)pyridin-3-yl]-1-ethyl-3-phenyl-1,5-dihydro-4H-pyrazolo[3,4-d]pyrimidin-4-one] here?
The IC50 was 4.6 nM.

How did the IC50 turn out when `CCCOc1ccc(S(=O)(=O)N2CCN(C)CC2)cc1-c1nc2c(c(C)nn2Cc2ccccn2)c(=O)[nH]1` [Example 14, 3-Methyl-6-[5-(4-methylpiperazin-1-ylsulphonyl)-2-n-propoxyphenyl]-1-(pyridin-2-yl)methyl-1,5-dihydro-4H-pyrazolo[3,4-d]pyrimidin-4-one] was run?
Its IC50 is 4.4 nM.

`CCCn1nc(-c2cnccn2)c2c(=O)[nH]c(-c3cc(S(=O)(=O)N4CCN(CC)CC4)cnc3OCC)nc21` [Example 19, 6-[2-Ethoxy-5-(4-ethylpiperazin-1-ylsulphonyl)pyridin-3-yl]-1-n-propyl-3-(pyrazin-2-yl)-1,5-dihydro-4H-pyrazolo[3,4-d]pyrimidin-4-one] was tested. Which IC50 did it give?
Its IC50 is 7.67 nM.
